Measurements: patent US20050260748A1, “Adult stem cells and uses thereof” (Michigan State University, priority 2004, published 2005)

Assays:
[1] = test system: mesenchymal stem cells (adipose stem cells); assay: Effect of lovastatin on formation of calcified ECM during osteogenic differentiation of adipose stem cells; assay type: cell-based, human
Description: Adipose stem cells were tested for their ability to differentiate into osteocytes by culturing the stem cells in a medium composed of a modified MEM (Chang et al. (1981) Somatic Cell Genetics 7: 235) with 10% FBS and supplemented with 0.1 μM dexamethasone, 50 μM L-ascorbate-2-phosphate, and 10 mM […] disodium for about two to four weeks. Osteogenesis was identified by the presence of calcified extracellular matrix (ECM) in unstained cells (FIG. 32(a)) or using Von Kossa staining (FIG. 32(b)), the quantitative measurement of calcium in calcified ECM (Zuk et al. (2001) Tissue Engineering 7: 211), and the quantitative measurement of calcium in culture medium.
Osteoporosis is a disorder that occurs when the amount of bone removed from the skeleton by bone-resorbing osteoclasts exceeds the amount of bone formed by osteoblasts. Statins may decrease bone resorption by preventing osteoclast activation that is mediated by farnesyl-pp and geranylgeranyl-pp (Cruz et al., (2002) Cleveland Clinic J. Med. 69:277-288). Experiments were performed to test the effect of lovastatin on the formation of calcified ECM using adipocyte cells that were differentiated into osteocytes as described supra. […]

[2] = test system: L1SV1A1 cells; assay: Albumin expression by immunostaining in immortal liver cell line cultured with hepatocyte growth factor; assay type: cell-based, human; details: HGF 20 ng/ml in modified Eagle's MEM with high calcium; days after initiation of induction
Description: Both immunostaining and Western blotting were used to characterize gene expression for clonally derived liver cell culture. For immunostaining, the cells grown in 35 mm plates were washed with phosphate-buffered saline (PBS) and fixed with 4% paraformaldehyde in PBS. After rinsing with PBS, the cells were permeabilized (0.5% Triton® X-100, 2% BSA, and 0.05% NaN3 in PBS) for 10 minutes. The cells were then incubated with the primary antibody diluted to the required concentration in PBS/Triton® X-100/BSA overnight at room temperature. After rinsing with PBS, the cells were incubated with a secondary antibody conjugated with FITC or Cy3 in PBS/Triton/BSA buffer for 1 hour at room temperature. […] After thoroughly washing the cells with PBS, the phase image and fluorescence of cells was observed and recorded using a Nikon Elipse TE 300 microscope connected to a digital camera and computer. […]
Furthermore, cells of the immortal liver cell line L1SV1A1, derived from HL1-1 (described infra), that were cultured in the modified Eagle's MEM (Chang et al. (1981) Somat. Cell Genet. 7: 235-53) containing hepatocyte growth factor (HGF) (He et al. (2003) Differentiation 71: 281-90) (20 ng/ml) expressed the hepatocyte protein, albumin, as detected by immunostaining (FIGS. 21(a)-21(c)). […]

| Compound | formation of calcified ECM (microscopic inspection) ([1]; 0.2 μM lovastatin added with osteogenic medium, compared to induced control cultures without lovastatin) | total calcium ([1]; 0.2 μM lovastatin in osteogenic medium vs induced control, FIG. 35) | expression of the hepatocyte protein albumin (immunostaining) [2] |
| --- | --- | --- | --- |
| CC[C@H](C)C(=O)O[C@H]1C[C@@H](C)C=C2C=C[C@H](C)[C@H](CC[C@@H]3C[C@@H](O)CC(=O)O3)[C@H]21 [lovastatin] | significantly less formation of calcified ECM | confirmed this observation | – |
| hepatocyte growth factor: hepatocyte growth factor (HGF), used as hepatocyte differentiation agent | – | – | detectable at 33 days but not at 22 days |
